{"source": "patent EP0385106A1", "about": "“Sustained release bolus effective for the prolonged prevention, treatment or control of nematode, acarid and endo- and ectoparasitic infestations of ruminants” (AMERICAN CYANAMID COMPANY, priority 1989, dated 1990)", "format_in_all_cases": "in vivo", "key": {"[1]": {"experiment": "Weight gains of cattle (Example 14)", "procedure": "(§1) One half boluses (weight 25.5 to 27.0 g) and are administered to cattle on pasture. […] In this test pastured animals are randomly divided into groups of 5 animals per group and ear-tagged. The feces of all animals is examined prior to the tests in order to determine the average number of nematode eggs per gram of feces of the test animals. […] The test is begun with all animals receiving one half of a bolus weighing about 25 to 27 grams. […] The animals are then placed in individual paddocks and examined at intervals during the holding period up to 120 days. […]"}, "[2]": {"tested_on": "nematode eggs", "experiment": "Nematode eggs per gram of feces in pastured cattle (Example 14)", "procedure": "as §1"}, "[3]": {"tested_on": "Oesophlogostonum", "experiment": "Per cent control of nematodes in cattle (Example 14)", "conditions": "dewormed 57 days earlier", "procedure": "as §1"}, "[4]": {"tested_on": "Ostertagia", "experiment": "Per cent control of nematodes in cattle (Example 14)", "conditions": "dewormed 57 days earlier", "procedure": "as §1"}, "[5]": {"tested_on": "Haemonchus", "experiment": "Per cent control of nematodes in cattle (Example 14)", "conditions": "dewormed 57 days earlier", "procedure": "as §1"}, "[6]": {"tested_on": "Cooperia", "experiment": "Per cent control of nematodes in cattle (Example 14)", "conditions": "dewormed 57 days earlier", "procedure": "as §1"}}, "data": [{"smiles": "c1ccc([C@H]2CN3CCSC3=N2)cc1", "note": "[Levamisole]", "values": [{"measurement": "Average weight gains (Kg) from Day 0", "setting": "[1]; Day 7", "value": 7, "unit": "kg"}, {"measurement": "Average weight gains (Kg) from Day 0", "setting": "[1]; Day 62", "value": 0, "unit": "kg"}, {"measurement": "Average weight gains (Kg) from Day 0", "setting": "[1]; Day 110", "value": 21, "unit": "kg"}, {"measurement": "Average number of nematode eggs per gram of feces", "setting": "[2]; Day 0 (before treatment)", "value": "(2850)"}, {"measurement": "Average number of nematode eggs per gram of feces", "setting": "[2]; Day 7", "value": 5}, {"measurement": "per cent in parentheses beside the egg count (reduction of nematode eggs)", "setting": "[2]; Day 7", "value": 99.9, "unit": "%"}, {"measurement": "Average number of nematode eggs per gram of feces", "setting": "[2]; Day 62 (levamisole group re-treated on day 62)", "value": 755}, {"measurement": "Average number of nematode eggs per gram of feces", "setting": "[2]; Day 119", "value": 146}, {"measurement": "Avg. number worms Oesophlogostonum", "setting": "[3]", "value": 117}, {"measurement": "Avg. number worms Ostertagia", "setting": "[4]", "value": 729}, {"measurement": "Avg. number worms Haemonchus", "setting": "[5]", "value": 2325}, {"measurement": "Avg. number worms Cooperia", "setting": "[6]", "value": 5937}]}]}
